The values below come from ChEMBL document CHEMBL1944514, “Fluorescence detection of single nucleotide polymorphisms using nucleic acid probe containing tricyclic base-linked acyclonucleoside” (Bioorg Med Chem Lett, 2012).

Activity calls are given as the source filed them. The rule behind the calls is not given here.

Holding throughout (assay type): nucleic-acid assay
For test [1], the system named is Nucleic Acid. Nature of the test: Binding affinity to 3'-r(CUUCCAGUUACAUAGAGA)-5' RNA assessed as fluorescence quenching by spectrophotometry.
Test [2] concerns Nucleic Acid. Nature of the test: Binding affinity to 3'-r(CUUCCAGUUCCAUAGAGA)-5' RNA assessed as fluorescence quenching by spectrophotometry.
The test system of test [3] is Nucleic Acid. Nature of the test: Binding affinity to 3'-r(CUUCCAGUUUCAUAGAGA)-5' RNA assessed as fluorescence quenching by spectrophotometry.
For test [4], the system named is Nucleic Acid. Nature of the test: Binding affinity to 3'-r(CUUCCAGUUGCAUAGAGA)-5' RNA assessed as fluorescence quenching by spectrophotometry.

With `Cc1cn([C@H]2C[C@H](OP(=O)(O)OC[C@H]3O[C@@H](n4ccc(N)nc4=O)C[C@@H]3OP(=O)(O)OC[C@H]3O[C@@H](n4cnc5c(N)ncnc54)C[C@@H]3OP(=O)(O)OC[C@H]3O[C@@H](n4cnc5c(N)ncnc54)C[C@@H]3OP(=O)(O)OC[C@H](Cn3cnc4cc5c(N)ncnc5nc43)OP(=O)(O)OC[C@H]3O[C@@H](n4cc(C)c(=O)[nH]c4=O)C[C@@H]3OP(=O)(O)OC[C@H]3O[C@@H](n4cnc5c(=O)[nH]c(N)nc54)C[C@@H]3OP(=O)(O)CC[C@H]3O[C@@H](n4cc(C)c(=O)[nH]c4=O)C[C@@H]3OP(=O)(O)OC[C@H]3O[C@@H](n4cnc5c(N)ncnc54)C[C@@H]3OP(=O)(O)OC[C@H]3O[C@@H](n4cc(C)c(=O)[nH]c4=O)C[C@@H]3OP(=O)(O)OC[C@H]3O[C@@H](n4ccc(N)nc4=O)C[C@@H]3OP(=O)(O)OC[C@H]3O[C@@H](n4cc(C)c(=O)[nH]c4=O)C[C@@H]3OP(=O)(O)OC[C@H]3O[C@@H](n4ccc(N)nc4=O)C[C@@H]3OP(=O)(O)OC[C@H]3O[C@@H](n4cc(C)c(=O)[nH]c4=O)C[C@@H]3O)[C@@H](COP(=O)(O)O[C@H]3C[C@H](n4cnc5c(=O)[nH]c(N)nc54)O[C@@H]3COP(=O)(O)O[C@H]3C[C@H](n4cnc5c(=O)[nH]c(N)nc54)O[C@@H]3COP(=O)(O)O[C@H]3C[C@H](n4cnc5c(N)ncnc54)O[C@@H]3COP(=O)(O)O[C@H]3C[C@H](n4cnc5c(N)ncnc54)O[C@@H]3COP(=O)(O)O[C@H]3C[C@H](n4cnc5c(=O)[nH]c(N)nc54)O[C@@H]3CO)O2)c(=O)nc1N`, the outcome in the test with Nucleic Acid [1] and in the test on Nucleic Acid [4] was inactive. Also, the outcome with Nucleic Acid [2] and with Nucleic Acid [3] was Active.

As to `Cc1cn([C@H]2C[C@H](OP(=O)(O)OC[C@H]3O[C@@H](n4ccc(N)nc4=O)C[C@@H]3OP(=O)(O)OC[C@H]3O[C@@H](n4cnc5c(N)ncnc54)C[C@@H]3OP(=O)(O)OC[C@H]3O[C@@H](n4cnc5c(N)ncnc54)C[C@@H]3OP(=O)(O)OC[C@H](Cn3cnc4cc5c(N)ncnc5nc43)OP(=O)(O)OC[C@H]3O[C@@H](n4ccc(N)nc4=O)C[C@@H]3OP(=O)(O)OC[C@H]3O[C@@H](n4cnc5c(=O)[nH]c(N)nc54)C[C@@H]3OP(=O)(O)CC[C@H]3O[C@@H](n4cc(C)c(=O)[nH]c4=O)C[C@@H]3OP(=O)(O)OC[C@H]3O[C@@H](n4cnc5c(N)ncnc54)C[C@@H]3OP(=O)(O)OC[C@H]3O[C@@H](n4cc(C)c(=O)[nH]c4=O)C[C@@H]3OP(=O)(O)OC[C@H]3O[C@@H](n4ccc(N)nc4=O)C[C@@H]3OP(=O)(O)OC[C@H]3O[C@@H](n4cc(C)c(=O)[nH]c4=O)C[C@@H]3OP(=O)(O)OC[C@H]3O[C@@H](n4ccc(N)nc4=O)C[C@@H]3OP(=O)(O)OC[C@H]3O[C@@H](n4cc(C)c(=O)[nH]c4=O)C[C@@H]3O)[C@@H](COP(=O)(O)O[C@H]3C[C@H](n4cnc5c(=O)[nH]c(N)nc54)O[C@@H]3COP(=O)(O)O[C@H]3C[C@H](n4cnc5c(=O)[nH]c(N)nc54)O[C@@H]3COP(=O)(O)O[C@H]3C[C@H](n4cnc5c(N)ncnc54)O[C@@H]3COP(=O)(O)O[C@H]3C[C@H](n4cnc5c(N)ncnc54)O[C@@H]3COP(=O)(O)O[C@H]3C[C@H](n4cnc5c(=O)[nH]c(N)nc54)O[C@@H]3CO)O2)c(=O)nc1N`, the outcome in the test on Nucleic Acid [1], in the test on Nucleic Acid [2] and in the test with Nucleic Acid [3] was Active. Besides, in the test with Nucleic Acid [4], the outcome was inactive.

Turning to `Cc1cn([C@H]2C[C@H](OP(=O)(O)OC[C@H]3O[C@@H](n4ccc(N)nc4=O)C[C@@H]3OP(=O)(O)OC[C@H]3O[C@@H](n4cnc5c(N)ncnc54)C[C@@H]3OP(=O)(O)OC[C@H]3O[C@@H](n4cnc5c(N)ncnc54)C[C@@H]3OP(=O)(O)OC[C@H]3O[C@@H](n4cnc5c(N)ncnc54)C[C@@H]3OP(=O)(O)OC[C@H](Cn3cnc4cc5c(N)ncnc5nc43)OP(=O)(O)OC[C@H]3O[C@@H](n4cnc5c(=O)[nH]c(N)nc54)C[C@@H]3OP(=O)(O)CC[C@H]3O[C@@H](n4cc(C)c(=O)[nH]c4=O)C[C@@H]3OP(=O)(O)OC[C@H]3O[C@@H](n4cnc5c(N)ncnc54)C[C@@H]3OP(=O)(O)OC[C@H]3O[C@@H](n4cc(C)c(=O)[nH]c4=O)C[C@@H]3OP(=O)(O)OC[C@H]3O[C@@H](n4ccc(N)nc4=O)C[C@@H]3OP(=O)(O)OC[C@H]3O[C@@H](n4cc(C)c(=O)[nH]c4=O)C[C@@H]3OP(=O)(O)OC[C@H]3O[C@@H](n4ccc(N)nc4=O)C[C@@H]3OP(=O)(O)OC[C@H]3O[C@@H](n4cc(C)c(=O)[nH]c4=O)C[C@@H]3O)[C@@H](COP(=O)(O)O[C@H]3C[C@H](n4cnc5c(=O)[nH]c(N)nc54)O[C@@H]3COP(=O)(O)O[C@H]3C[C@H](n4cnc5c(=O)[nH]c(N)nc54)O[C@@H]3COP(=O)(O)O[C@H]3C[C@H](n4cnc5c(N)ncnc54)O[C@@H]3COP(=O)(O)O[C@H]3C[C@H](n4cnc5c(N)ncnc54)O[C@@H]3COP(=O)(O)O[C@H]3C[C@H](n4cnc5c(=O)[nH]c(N)nc54)O[C@@H]3CO)O2)c(=O)nc1N`, the result with Nucleic Acid [1], in the test on Nucleic Acid [2] and in the test with Nucleic Acid [4] was Active. In addition, in the test with Nucleic Acid [3], the outcome was inactive.

On to `Cc1cn([C@H]2C[C@H](OP(=O)(O)OC[C@H]3O[C@@H](n4ccc(N)nc4=O)C[C@@H]3OP(=O)(O)OC[C@H]3O[C@@H](n4cnc5c(N)ncnc54)C[C@@H]3OP(=O)(O)OC[C@H]3O[C@@H](n4cnc5c(N)ncnc54)C[C@@H]3OP(=O)(O)OC[C@H](Cn3cnc4cc5c(N)ncnc5nc43)OP(=O)(O)OC[C@H]3O[C@@H](n4cnc5c(=O)[nH]c(N)nc54)C[C@@H]3OP(=O)(O)OC[C@H]3O[C@@H](n4cnc5c(=O)[nH]c(N)nc54)C[C@@H]3OP(=O)(O)CC[C@H]3O[C@@H](n4cc(C)c(=O)[nH]c4=O)C[C@@H]3OP(=O)(O)OC[C@H]3O[C@@H](n4cnc5c(N)ncnc54)C[C@@H]3OP(=O)(O)OC[C@H]3O[C@@H](n4cc(C)c(=O)[nH]c4=O)C[C@@H]3OP(=O)(O)OC[C@H]3O[C@@H](n4ccc(N)nc4=O)C[C@@H]3OP(=O)(O)OC[C@H]3O[C@@H](n4cc(C)c(=O)[nH]c4=O)C[C@@H]3OP(=O)(O)OC[C@H]3O[C@@H](n4ccc(N)nc4=O)C[C@@H]3OP(=O)(O)OC[C@H]3O[C@@H](n4cc(C)c(=O)[nH]c4=O)C[C@@H]3O)[C@@H](COP(=O)(O)O[C@H]3C[C@H](n4cnc5c(=O)[nH]c(N)nc54)O[C@@H]3COP(=O)(O)O[C@H]3C[C@H](n4cnc5c(=O)[nH]c(N)nc54)O[C@@H]3COP(=O)(O)O[C@H]3C[C@H](n4cnc5c(N)ncnc54)O[C@@H]3COP(=O)(O)O[C@H]3C[C@H](n4cnc5c(N)ncnc54)O[C@@H]3COP(=O)(O)O[C@H]3C[C@H](n4cnc5c(=O)[nH]c(N)nc54)O[C@@H]3CO)O2)c(=O)nc1N`, for which the outcome in the test on Nucleic Acid [1], in the test on Nucleic Acid [3] and in the test with Nucleic Acid [4] was Active. Besides, in the test with Nucleic Acid [2], the outcome was inactive.

As to `Cc1cn([C@H]2C[C@H](OP(=O)(O)OC[C@H]3O[C@@H](n4ccc(N)nc4=O)C[C@@H]3OP(=O)(O)OC[C@H]3O[C@@H](n4cnc5c(N)ncnc54)C[C@@H]3OP(=O)(O)OC[C@H]3O[C@@H](n4cnc5c(N)ncnc54)C[C@@H]3OP(=O)(O)OC[C@H]3O[C@@H](n4cc(C)c(=O)[nH]c4=O)C[C@@H]3OP(=O)(O)OC[C@H](Cn3cnc4cc5c(N)ncnc5nc43)OP(=O)(O)OC[C@H]3O[C@@H](n4cnc5c(=O)[nH]c(N)nc54)C[C@@H]3OP(=O)(O)CC[C@H]3O[C@@H](n4cc(C)c(=O)[nH]c4=O)C[C@@H]3OP(=O)(O)OC[C@H]3O[C@@H](n4cnc5c(N)ncnc54)C[C@@H]3OP(=O)(O)OC[C@H]3O[C@@H](n4cc(C)c(=O)[nH]c4=O)C[C@@H]3OP(=O)(O)OC[C@H]3O[C@@H](n4ccc(N)nc4=O)C[C@@H]3OP(=O)(O)OC[C@H]3O[C@@H](n4cc(C)c(=O)[nH]c4=O)C[C@@H]3OP(=O)(O)OC[C@H]3O[C@@H](n4ccc(N)nc4=O)C[C@@H]3OP(=O)(O)OC[C@H]3O[C@@H](n4cc(C)c(=O)[nH]c4=O)C[C@@H]3O)[C@@H](COP(=O)(O)O[C@H]3C[C@H](n4cnc5c(=O)[nH]c(N)nc54)O[C@@H]3COP(=O)(O)O[C@H]3C[C@H](n4cnc5c(=O)[nH]c(N)nc54)O[C@@H]3COP(=O)(O)O[C@H]3C[C@H](n4cnc5c(N)ncnc54)O[C@@H]3COP(=O)(O)O[C@H]3C[C@H](n4cnc5c(N)ncnc54)O[C@@H]3COP(=O)(O)O[C@H]3C[C@H](n4cnc5c(=O)[nH]c(N)nc54)O[C@@H]3CO)O2)c(=O)nc1N`, the outcome with Nucleic Acid [1] was inactive. Further, the result in the test on Nucleic Acid [2], with Nucleic Acid [3] and in the test with Nucleic Acid [4] was Active.

Consider `Cc1cn([C@H]2C[C@H](OP(=O)(O)OC[C@H]3O[C@@H](n4ccc(N)nc4=O)C[C@@H]3OP(=O)(O)OC[C@H]3O[C@@H](n4cnc5c(N)ncnc54)C[C@@H]3OP(=O)(O)OC[C@H]3O[C@@H](n4cnc5c(N)ncnc54)C[C@@H]3OP(=O)(O)OC[C@H](Cn3cnc4cc5c(N)ncnc5nc43)OP(=O)(O)OC[C@H]3O[C@@H](n4cnc5c(N)ncnc54)C[C@@H]3OP(=O)(O)OC[C@H]3O[C@@H](n4cnc5c(=O)[nH]c(N)nc54)C[C@@H]3OP(=O)(O)CC[C@H]3O[C@@H](n4cc(C)c(=O)[nH]c4=O)C[C@@H]3OP(=O)(O)OC[C@H]3O[C@@H](n4cnc5c(N)ncnc54)C[C@@H]3OP(=O)(O)OC[C@H]3O[C@@H](n4cc(C)c(=O)[nH]c4=O)C[C@@H]3OP(=O)(O)OC[C@H]3O[C@@H](n4ccc(N)nc4=O)C[C@@H]3OP(=O)(O)OC[C@H]3O[C@@H](n4cc(C)c(=O)[nH]c4=O)C[C@@H]3OP(=O)(O)OC[C@H]3O[C@@H](n4ccc(N)nc4=O)C[C@@H]3OP(=O)(O)OC[C@H]3O[C@@H](n4cc(C)c(=O)[nH]c4=O)C[C@@H]3O)[C@@H](COP(=O)(O)O[C@H]3C[C@H](n4cnc5c(=O)[nH]c(N)nc54)O[C@@H]3COP(=O)(O)O[C@H]3C[C@H](n4cnc5c(=O)[nH]c(N)nc54)O[C@@H]3COP(=O)(O)O[C@H]3C[C@H](n4cnc5c(N)ncnc54)O[C@@H]3COP(=O)(O)O[C@H]3C[C@H](n4cnc5c(N)ncnc54)O[C@@H]3COP(=O)(O)O[C@H]3C[C@H](n4cnc5c(=O)[nH]c(N)nc54)O[C@@H]3CO)O2)c(=O)nc1N`, for which the outcome in the test with Nucleic Acid [1], in the test on Nucleic Acid [2] and in the test with Nucleic Acid [4] was Active. Moreover, the result in the test on Nucleic Acid [3] was inactive.
